Laboratory results: ChEMBL document CHEMBL1201862, “PubChem BioAssay data set” (2004)
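Where inhibition never reached the appropriate level, the endpoint shown equals the highest concentration tested. Otherwise, values were interpolated linearly from a five-concentration, 48-hour dose response in 96-well plates. GI50: concentration for 50% inhibition of growth.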 Activity calls are given as the source filed them. No stated cut-off is given here; in the data, active = GI50 up to about 1.1 µM and inactive = higher.

Tests used:
Assay in all cases: growth of human tumour cells (NCI), 48 h
SK-MEL-28 = test system: SK-MEL-28
EKVX = test system: EKVX
Malme-3M = test system: Malme-3M
OVCAR-8 = test system: OVCAR-8
HCT-116 = test system: HCT-116
MCF7 = test system: MCF7
UACC-257 = test system: UACC-257
SK-OV-3 = test system: SK-OV-3
SW-620 = test system: SW-620
OVCAR-4 = test system: OVCAR-4
RPMI-8226 = test system: RPMI-8226
A549 = test system: A549
MDA-N = test system: MDA-N
NCI-H226 = test system: NCI-H226
M14 = test system: M14
UO-31 = test system: UO-31
UACC-62 = test system: UACC-62
SF-539 = test system: SF-539
SNB-19 = test system: SNB-19
MDA-MB-231 = test system: MDA-MB-231

Measured: GI50

Cc1ncc([N+](=O)[O-])n1CCNC(=O)CCn1ccnc1[N+](=O)[O-]
inactive: SK-MEL-28 > 100 µM | EKVX > 100 µM | Malme-3M > 100 µM | OVCAR-8 > 100 µM | HCT-116 > 100 µM | MCF7 > 100 µM | UACC-257 > 100 µM | SK-OV-3 > 100 µM | SW-620 > 100 µM | OVCAR-4 > 100 µM | RPMI-8226 > 100 µM | A549 > 100 µM | MDA-N > 100 µM | NCI-H226 > 100 µM | M14 > 100 µM | UO-31 > 100 µM | UACC-62 > 100 µM | SF-539 > 100 µM | SNB-19 > 100 µM

O=C1C2CCCC2N1Cc1ccccc1 (centres undefined)
inactive: EKVX > 100 µM | OVCAR-8 > 100 µM | HCT-116 > 100 µM | MCF7 > 100 µM | UACC-257 > 100 µM | SK-OV-3 > 100 µM | SW-620 > 100 µM | OVCAR-4 23.3 µM | RPMI-8226 > 100 µM | MDA-N > 100 µM | NCI-H226 > 100 µM | M14 13.6 µM | UO-31 15.1 µM | UACC-62 > 100 µM | SF-539 > 100 µM

NNC(=O)COc1nc(-c2cccs2)nc2ccc(I)cc12
inactive: SK-MEL-28 24.8 µM | EKVX 18.9 µM | Malme-3M 17 µM | OVCAR-8 29 µM | HCT-116 16.6 µM | MCF7 15.8 µM | SK-OV-3 20.6 µM | SW-620 34.5 µM | OVCAR-4 21.4 µM | A549 18.7 µM | MDA-N 31.7 µM | NCI-H226 19.9 µM | M14 23.1 µM | UO-31 21.1 µM | UACC-62 19.8 µM | SNB-19 13.4 µM

CCOC(=O)CCC(C(=O)OCC)n1nnc2cc(Nc3c(C)[n+]([O-])c4ccc(Cl)cc4[n+]3[O-])ccc21 (centres undefined)
inactive: EKVX 23.2 µM | Malme-3M > 100 µM | OVCAR-8 > 100 µM | HCT-116 69.5 µM | MCF7 34.2 µM | UACC-257 54.1 µM | SK-OV-3 > 100 µM | SW-620 > 100 µM | OVCAR-4 79.8 µM | RPMI-8226 47.2 µM | A549 > 100 µM | MDA-N > 100 µM | NCI-H226 26.9 µM | M14 > 100 µM | UO-31 65.5 µM | UACC-62 63.5 µM | SF-539 82.4 µM | SNB-19 > 100 µM

CC(C)CCc1c(Cl)nc(Cl)nc1Cl
inactive: SK-MEL-28 9.04 µM | EKVX 26.2 µM | Malme-3M 6.12 µM | OVCAR-8 > 10 µM | HCT-116 2.48 µM | MCF7 13.8 µM | UACC-257 16.7 µM | SK-OV-3 17 µM | SW-620 1.4 µM | OVCAR-4 19.7 µM | RPMI-8226 30.7 µM | A549 21.7 µM | MDA-N 3.98 µM | NCI-H226 4.44 µM | M14 3.61 µM | UO-31 20.1 µM | UACC-62 12 µM | SF-539 24.8 µM | SNB-19 22 µM

CCOc1cc(NC(C)=O)ccc1C(=O)NN1C(=O)/C(=C/c2ccco2)N=C1c1ccccc1
inactive: SK-MEL-28 > 100 µM | EKVX 74.3 µM | Malme-3M > 100 µM | OVCAR-8 41.2 µM | HCT-116 > 100 µM | MCF7 > 100 µM | UACC-257 > 100 µM | SK-OV-3 > 100 µM | SW-620 > 100 µM | OVCAR-4 > 100 µM | RPMI-8226 15.1 µM | A549 > 100 µM | MDA-N > 100 µM | NCI-H226 > 100 µM | M14 > 100 µM | UO-31 61.7 µM | UACC-62 > 100 µM | SF-539 > 100 µM | SNB-19 > 100 µM

CN/N=C(/C=C/c1ccccc1)C(C)C
inactive: SK-MEL-28 > 100 µM | EKVX > 100 µM | Malme-3M > 100 µM | OVCAR-8 > 100 µM | HCT-116 > 100 µM | MCF7 > 100 µM | UACC-257 > 100 µM | SK-OV-3 > 100 µM | SW-620 > 100 µM | OVCAR-4 > 100 µM | RPMI-8226 > 100 µM | A549 > 100 µM | MDA-N > 100 µM | NCI-H226 > 100 µM | M14 > 100 µM | UO-31 > 100 µM | UACC-62 > 100 µM | SF-539 > 100 µM | SNB-19 > 100 µM

Cc1nc(C)c(N2CCN(S(N)(=O)=O)CC2)c(O)n1
inactive: SK-MEL-28 > 100 µM | EKVX > 100 µM | Malme-3M > 100 µM | OVCAR-8 > 100 µM | HCT-116 > 100 µM | MCF7 > 100 µM | UACC-257 > 100 µM | MDA-MB-231 > 100 µM | SK-OV-3 > 100 µM | SW-620 > 100 µM | OVCAR-4 > 100 µM | RPMI-8226 > 100 µM | A549 > 100 µM | NCI-H226 > 100 µM | M14 > 100 µM | UO-31 > 100 µM | UACC-62 > 100 µM | SF-539 > 100 µM | SNB-19 > 100 µM
